# Reference: US8877819B2, “Methods for treating heat stress and related compositions” (Georgetown University, priority 2008, dated 2014)
# Marks after values point to notes of the source that are not given here.
# Assays:
# angiotensin-2 = experiment: Serum angiotensin-2 levels (radioimmunoassay); assay type: in vivo, Zucker Fatty Rats
# Protocol: Serum angiotensin-2 was trapped by octylminicolumns (Amprep-C8, 500 mg, Amersham, Buckingshire, UK). Each minicolumn was prewashed with 5 mL of 100% methanol and then with 10 mL of 0.1% trifluoroacetic acid (TFA) in distilled water. After the serum was passed through the minicolumn, it was washed with 0.1% TFA again. […] Samples were collected and dried in a vacuum centrifuge and dissolved in 0.1M Tris-acetate buffer (pH 7.4) containing 2.6 mM disodium salt of ethylenediaminetetra-acetic acid (EDTA), 1 mM phenylmethylsulphonyl fluoride, and 0.1% bovine serum albumin.
# Angiotensin-2 was measured by radioimmunoassay using an angiotensin-2 antibody (Peninsula Laboratories Inc., Belmont, Calif.). The sensitivity of the assay is 1.0 pg/tube. The 500-fold diluted angiotensin-2 antibody (100 μL) was added to the sample (400 μL) and standard tubes that were incubated 24 hours at 4° C.
# [1] = system: Thiobarbituric acid-reactive substances (TBARS); experiment: Lipid peroxidation (TBARS) in hepatic and kidney homogenates; assay type: in vivo, Zucker Fatty Rats; conditions: Experiment 2
# Protocol: Thiobarbituric acid-reactive substances (TBARS) as an index of lipid peroxidation were determined on hepatic and kidney homogenates from control and treated and malondialdehyde (MDA) was used as the standard.
# Zucker Fatty Rats (ZFR) [2] = experiment: Blood pressure and cardiac rate by tail plethysmography; assay type: in vivo; conditions: for SBP over the last month vs control / SBP after heat stress: Experiment 1; for SBP after heat stress: survivors, 12 days after heat stress; for DBP / SBP / Cardiac rate / SBP at the end of study (75 days) vs Lo Asta group / average SBP vs control from 40 days to end of study: Experiment 2; for DBP / SBP / Cardiac rate: 60 days; for Cardiac rate: in beats/min (unit assumed)
# Protocol: For two experiments, a total of 96 Zucker Fatty Rats (ZFR) (Charles River, Wilmington, Mass.) were used: 48 in each experiment were divided into four groups of 12 rats. Initial body weights ranged between 434 and 624 g in the first experiment and between 388 and 520 g in the second. All rats consumed a regular rat diet in crushed form (Purina Rat Chow, Ralston Purina, St. Louis, Mo.). Sucrose was added to the pulverized regular rat chow (30%, w/w). The four groups comprised a control eating the described diet and three test groups eating the same diet but with the addition of captopril or astaxanthin (two different doses). […] The amount of astaxanthin added was based on 2% (w/w) content of astaxanthin to powder. The first study continued for 57 days while the second continued for 75 days. SBP was measured by tail plethysmography using two different instruments. As in many previous studies, an instrument from Narco Biosciences (Houston, Tex.) was used. This allowed for rapid measurement SBP with a beeper sound system. The second reading was performed on an instrument obtained from Kent Scientific Corporation (Torrington, Conn.). The latter is a computerized, non-invasive tail cuff acquisition system that utilizes a specially-designed differential pressure transducer to non-invasively measure the blood volume in the tail. This instrument not only records SBP, but also provides measurements of mean blood pressure (MBP), diastolic blood pressure (DBP), and cardiac rate. The two instruments were used interchangeably. Previous experience has shown that the SBP readings were virtually the same by either instrument. Rats were allowed free access to their diet and water until SBP readings were obtained between 13.00 h and 17.00 h after a slight warming. Multiple readings on individual rats were taken. To be accepted, SBP measurements on a given rat had to be stable (consistently within 5 mm Hg).
# RAS = experiment: Losartan challenge (decrease in SBP to estimate activity of the RAS); assay type: in vivo, Zucker Fatty Rats; conditions: losartan 40 mg/kg orally
# Excerpt: Three and six hours after lavage, SBP was remeasured. The decreased SBP after losartan was used to estimate activity of the RAS.
# MCP-1 = experiment: Cytokine assay (ELISA), MCP-1; assay type: in vivo, Zucker Fatty Rats; conditions: Experiment 2
# Protocol: (§1) Various cytokines were measured by ELISA methodology using kits from the following sources: rat MCP-1—Assay Designs Inc., Ann Arbor, Mich.; rat adiponectin—ALPCO Diagnostics, Salem, N.H.; TNF-a, ALPCO Diagnostics, Salem, N.H.; RAT IL-1B—Assay Designs Inc, Ann Arbor, Mich.; RAT IL-6—ALPCO Diagnostics, Salem, N.H.
# IL-6 = experiment: Cytokine assay (ELISA), IL-6; assay type: in vivo, Zucker Fatty Rats; conditions: Experiment 2
# Protocol: as §1
# Zucker Fatty Rats (ZFR) [3] = experiment: Survival after accidental heat stress; assay type: in vivo; conditions: Experiment 1; for survival after heat stress (survivors/group): day 42, 86-89° F. for 5-6 hours
# Protocol: For two experiments, a total of 96 Zucker Fatty Rats (ZFR) (Charles River, Wilmington, Mass.) were used: 48 in each experiment were divided into four groups of 12 rats. Initial body weights ranged between 434 and 624 g in the first experiment and between 388 and 520 g in the second. All rats consumed a regular rat diet in crushed form (Purina Rat Chow, Ralston Purina, St. Louis, Mo.). Sucrose was added to the pulverized regular rat chow (30%, w/w). The four groups comprised a control eating the described diet and three test groups eating the same diet but with the addition of captopril or astaxanthin (two different doses). […] The amount of astaxanthin added was based on 2% (w/w) content of astaxanthin to powder. The first study continued for 57 days while the second continued for 75 days.
# On the 42nd day, the temperature of rodent quarters rose from 72° F. to the range of 86-89° F. It was estimated that the rats were exposed to this elevated temperature for 5-6 hours. […] In contrast all ZFR in the Hi Asta group survived (11/11).
# On a hot summer day, the air conditioning system in the animal quarters ceased functioning. The internal temperature of the animal quarters rose to a Fahrenheit range in the high 80's. Due to this heat stress, several ZFR that had already undergone almost six weeks of study expired. […] This can be attributed to poor stress handling of ZFR.
# Organ weights = assay type: in vivo, Zucker Fatty Rats; conditions: Experiment 2, after sacrifice, in g (unit assumed)
# Protocol: Organ weights were measured immediately after sacrifice of the rats.
# [4] = Experiment 2, Hi Asta, astaxanthin 25 mg/kg in feed
# [5] = Experiment 2, Lo Asta, astaxanthin 5 mg/kg in feed
# [6] = Hi Asta, astaxanthin 25 mg/kg in feed
# [7] = Lo Asta, astaxanthin 5 mg/kg in feed
# [8] = Experiment 2, captopril 30 mg/kg in feed
smiles,measurement,setting,value
"CC1=C(/C=C/C(C)=C/C=C/C(C)=C/C=C/C=C(C)/C=C/C=C(C)/C=C/C2=C(C)C(=O)[C@@H](O)CC2(C)C)C(C)(C)C[C@H](O)C1=O [Asta, astaxanthin]",Angio 2,angiotensin-2; [4],177.0 ± 5.2 pg/mL
same,Angio 2,angiotensin-2; [5],197.0 ± 7.2 pg/mL
same,"Lipid peroxidation, Kidney",[1]; [6],3.5 ± 0.30 nmoles MDA/mg protein
same,"Lipid peroxidation, Liver",[1]; [6],3.9 ± 0.46 nmoles MDA/mg protein
same,"Lipid peroxidation, Kidney",[1]; [7],3.9 ± 0.48 nmoles MDA/mg protein
same,"Lipid peroxidation, Liver",[1]; [7],4.7 ± 0.53 nmoles MDA/mg protein
same,SBP over the last month vs control,Zucker Fatty Rats (ZFR) [2]; [6],significantly lower SBP
same,SBP over the last month vs control,Zucker Fatty Rats (ZFR) [2]; [7],tendency for the SBP to be lower
same,SBP after heat stress,Zucker Fatty Rats (ZFR) [2]; [6],133.5 ± 1.5 mm Hg
same,SBP after heat stress,Zucker Fatty Rats (ZFR) [2]; [7],140.0 ± 2.0 mm Hg
same,DBP,Zucker Fatty Rats (ZFR) [2]; [6],102.0 ± 2.0 mm Hg
same,SBP,Zucker Fatty Rats (ZFR) [2]; [6],132.0 ± 1.8 mm Hg
same,Cardiac rate,Zucker Fatty Rats (ZFR) [2]; [6],401.0 ± 10.6
same,DBP,Zucker Fatty Rats (ZFR) [2]; [7],108.0 ± 2.1 mm Hg
same,SBP,Zucker Fatty Rats (ZFR) [2]; [7],134.0 ± 1.6 mm Hg
same,Cardiac rate,Zucker Fatty Rats (ZFR) [2]; [7],387.0 ± 8.6
same,SBP at the end of study (75 days) vs Lo Asta group,Zucker Fatty Rats (ZFR) [2]; [6],significantly lower than in the Lo Asta group
same,average SBP vs control from 40 days to end of study,Zucker Fatty Rats (ZFR) [2]; [6],significantly lower than control
same,average SBP vs control from 40 days to end of study,Zucker Fatty Rats (ZFR) [2]; [7],significantly lower than control
same,Losartan: decrease in SBP after losartan challenge,"RAS; Experiment 1, survivors after heat stress, Hi Asta, astaxanthin 25 mg/kg in feed",28.0 ± 2.5
same,Losartan: decrease in SBP after losartan challenge,"RAS; Experiment 1, survivors after heat stress, Lo Asta, astaxanthin 5 mg/kg in feed",38.0 ± 3.2
same,Losartan: decrease in SBP after losartan challenge,RAS; [4],27.5 ± 1.3 mm Hg
same,Losartan: decrease in SBP after losartan challenge,RAS; [5],33.8 ± 2.8 mm Hg
same,MCP-1,MCP-1; [6],96.0 ± 4.1
same,MCP-1,MCP-1; [7],110.0 ± 5.2
same,IL-6,IL-6; [6],433.0 ± 9.3
same,IL-6,IL-6; [7],470.0 ± 21^
same,survival percentage after heat stress,Zucker Fatty Rats (ZFR) [3]; [6],100%
same,survival percentage after heat stress,Zucker Fatty Rats (ZFR) [3]; [7],33%
same,survival after heat stress (survivors/group),Zucker Fatty Rats (ZFR) [3]; [6],11/11
same,survival after heat stress (survivors/group),Zucker Fatty Rats (ZFR) [3]; [7],4/12
same,"Organ weight, Epidydimal fat pad",Organ weights; [6],21.7 ± 12
same,"Organ weight, Kidney (left)",Organ weights; [6],2.4 ± 0.08
same,"Organ weight, Kidney (right)",Organ weights; [6],2.5 ± 0.10
same,"Organ weight, Liver",Organ weights; [6],43.3 ± 2.3
same,"Organ weight, Epidydimal fat pad",Organ weights; [7],19.3 ± 0.9
same,"Organ weight, Kidney (left)",Organ weights; [7],2.5 ± 0.16
same,"Organ weight, Kidney (right)",Organ weights; [7],2.5 ± 0.34
same,"Organ weight, Liver",Organ weights; [7],40.4 ± 2.4
"C[C@H](CS)C(=O)N1CCC[C@H]1C(=O)O [Captopril, reference compound]",Angio 2,angiotensin-2; [8],162.0 ± 6.4 pg/mL
same,"Lipid peroxidation, Kidney",[1]; captopril 30 mg/kg in feed,3.4 ± 0.44 nmoles MDA/mg protein
same,"Lipid peroxidation, Liver",[1]; captopril 30 mg/kg in feed,4.0 ± 0.29 nmoles MDA/mg protein
same,SBP over the last month vs control,Zucker Fatty Rats (ZFR) [2]; captopril 30 mg/kg in feed,significantly lower SBP
same,SBP after heat stress,Zucker Fatty Rats (ZFR) [2]; captopril 30 mg/kg in feed,133.8 ± 2.4 mm Hg
same,DBP,Zucker Fatty Rats (ZFR) [2]; captopril 30 mg/kg in feed,103.0 ± 1.8 mm Hg
same,SBP,Zucker Fatty Rats (ZFR) [2]; captopril 30 mg/kg in feed,129.0 ± 1.5 mm Hg
same,Cardiac rate,Zucker Fatty Rats (ZFR) [2]; captopril 30 mg/kg in feed,393.0 ± 9.3
same,SBP at the end of study (75 days) vs Lo Asta group,Zucker Fatty Rats (ZFR) [2]; captopril 30 mg/kg in feed,significantly lower than in the Lo Asta group
same,average SBP vs control from 40 days to end of study,Zucker Fatty Rats (ZFR) [2]; captopril 30 mg/kg in feed,significantly lower than control
same,Losartan: decrease in SBP after losartan challenge,"RAS; Experiment 1, survivors after heat stress, captopril 30 mg/kg in feed",29.0 ± 2.4
same,Losartan: decrease in SBP after losartan challenge,RAS; [8],30.6 ± 1.8 mm Hg
same,MCP-1,MCP-1; captopril 30 mg/kg in feed,81.0 ± 4.1
same,IL-6,IL-6; captopril 30 mg/kg in feed,391.0 ± 12*^
same,survival percentage after heat stress,Zucker Fatty Rats (ZFR) [3]; captopril 30 mg/kg in feed,36%
same,survival after heat stress (survivors/group),Zucker Fatty Rats (ZFR) [3]; captopril 30 mg/kg in feed,4/11
same,"Organ weight, Epidydimal fat pad",Organ weights; captopril 30 mg/kg in feed,19.1 ± 1.2
same,"Organ weight, Kidney (left)",Organ weights; captopril 30 mg/kg in feed,2.3 ± 0.09
same,"Organ weight, Kidney (right)",Organ weights; captopril 30 mg/kg in feed,2.3 ± 0.09
same,"Organ weight, Liver",Organ weights; captopril 30 mg/kg in feed,43.1 ± 2.0
